From paper PMC9418190, “UDP-glucose, cereblon-dependent proinsulin degrader” (Scientific Reports, 2022)

Target: T1, cereblon (Mus musculus, UniProt Q8C7D2)
T1 construct: gene Crbn
T1 sequence (Q8C7D2 1-445): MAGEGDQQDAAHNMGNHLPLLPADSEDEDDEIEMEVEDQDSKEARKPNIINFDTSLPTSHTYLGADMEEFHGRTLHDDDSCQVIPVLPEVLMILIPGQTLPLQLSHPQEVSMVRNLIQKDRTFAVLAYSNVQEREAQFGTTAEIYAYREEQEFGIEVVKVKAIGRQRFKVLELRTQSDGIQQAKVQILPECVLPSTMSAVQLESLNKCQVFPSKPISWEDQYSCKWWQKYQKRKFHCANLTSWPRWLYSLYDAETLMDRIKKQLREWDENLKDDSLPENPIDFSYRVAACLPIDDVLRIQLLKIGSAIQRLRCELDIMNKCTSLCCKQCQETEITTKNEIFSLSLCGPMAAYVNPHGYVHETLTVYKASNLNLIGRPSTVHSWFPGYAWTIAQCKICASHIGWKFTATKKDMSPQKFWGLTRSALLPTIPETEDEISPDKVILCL
Assay: dose-dependent protection of proinsulin from cereblon-dependent degradation in NIT1 cells
Type: cell-based

With O=C1CCC(=O)N1 [succinimide] as the molecule, how does the “dose-dependent protection of proinsulin from cereblon-dependent degradation in N” value read?
The value was “In fact, succinimide binds to cereblon, protects proinsulin degradation from proinsulin degrader X in a dose-dependent manner”.
